Values of other authors as cited in patent US8506932B2, “Tetracyclic indole derivatives as in vivo imaging agents and having peripheralbenzodiazepine receptor affinity (PBR)” (Hammersmith Imanet Limited, priority 2005, dated 2013).

Legend:
[1] = stated as known limitation
PBR = PBR (Homo sapiens, UniProt P30536); details: stated as known limitation
Chain of PBR (P30536 whole entry, species assumed): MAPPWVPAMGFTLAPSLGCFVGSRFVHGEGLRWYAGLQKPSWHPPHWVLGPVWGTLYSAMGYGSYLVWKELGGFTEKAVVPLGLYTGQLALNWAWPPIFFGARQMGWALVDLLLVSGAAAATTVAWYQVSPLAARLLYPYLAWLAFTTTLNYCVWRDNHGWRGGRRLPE

## CC[C@@H](C)N([11CH3])C(=O)c1cc2ccccc2c(-c2ccccc2Cl)n1 [(R)-[11C]PK11195]
[1]
  protein binding: high
PBR
  specific to non-specific binding: low
